Data as given in paper PMC4162805 (European journal of medicinal chemistry, 2014).
“Also recorded” adds a separate entry of the source.

Target: T1, κ-opioid receptor (KOR) (Homo sapiens, UniProt P41145)
Assay: not given
Assay type: binding
Details: not given

T1 sequence (P41145 whole entry): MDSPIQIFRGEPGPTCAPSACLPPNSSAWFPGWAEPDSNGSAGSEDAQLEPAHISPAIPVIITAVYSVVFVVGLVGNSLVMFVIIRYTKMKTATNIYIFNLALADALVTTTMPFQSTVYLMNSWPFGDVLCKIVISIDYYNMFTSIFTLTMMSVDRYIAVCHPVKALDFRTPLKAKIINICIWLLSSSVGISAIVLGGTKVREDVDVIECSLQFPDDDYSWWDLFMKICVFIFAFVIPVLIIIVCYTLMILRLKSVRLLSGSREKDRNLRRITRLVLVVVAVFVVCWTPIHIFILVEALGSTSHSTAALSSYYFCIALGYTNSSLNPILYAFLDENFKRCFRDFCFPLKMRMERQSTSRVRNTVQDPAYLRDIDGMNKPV

Which “Selectivity DOR/KOR” value does the source give for `C=CC(=O)O[C@H]1C[C@@H](C(=O)OC)[C@]2(C)CC[C@H]3C(=O)O[C@H](c4ccoc4)C[C@]3(C)[C@H]2C1=O` [4a, 2-O-Acryloylsalvinorin B] here?
Its value is >552.

What about the “fold reduced KOR affinity compared to 1” value of the same molecule?
Its value is 6 fold.

For `C=C(C)C(=O)O[C@H]1C[C@@H](C(=O)OC)[C@]2(C)CC[C@H]3C(=O)O[C@H](c4ccoc4)C[C@]3(C)[C@H]2C1=O` [4b, 2-O-Methacryloylsalvinorin B], which “Selectivity MOR/KOR” value is on record?
The value was >293.

With `COC(=O)[C@@H]1C[C@H](OC(=O)C=C(C)C)C(=O)[C@H]2[C@@]1(C)CC[C@H]1C(=O)O[C@H](c3ccoc3)C[C@]21C` [4c, 2-O-(3′,3′-Dimethylacryloyl)salvinorin B] as the molecule, how does the “fold reduced KOR affinity compared to 4a” value read?
The value was 21 fold.

Which “Selectivity DOR/KOR” value does the source give for `C=C(C)CC(=O)O[C@H]1C[C@@H](C(=O)OC)[C@]2(C)CC[C@H]3C(=O)O[C@H](c4ccoc4)C[C@]3(C)[C@H]2C1=O` [4d, 2-O-(3′-Methylbut-3′-enoyl)salvinorin B] here?
The value was >1666.

And the “fold increased KOR affinity compared to 4a” value?
Its value is 3 fold.

For `C/C=C/C(=O)O[C@H]1C[C@@H](C(=O)OC)[C@]2(C)CC[C@H]3C(=O)O[C@H](c4ccoc4)C[C@]3(C)[C@H]2C1=O` [4e, 2-O-Crotonoylsalvinorin B], which “Selectivity DOR/KOR” value is on record?
Its value is >395.

What does the source list for `C/C=C(\C)C(=O)O[C@H]1C[C@@H](C(=O)OC)[C@]2(C)CC[C@H]3C(=O)O[C@H](c4ccoc4)C[C@]3(C)[C@H]2C1=O` [4g, 2-O-(2′,3′-Dimethylacryloyl)salvinorin B]?
Selectivity DOR/KOR: >65; Selectivity MOR/KOR: >65; fold reduced KOR affinity compared to 4a: 8 fold

For `COC(=O)[C@@H]1C[C@H](OC(=O)/C=C/c2ccccc2)C(=O)[C@H]2[C@@]1(C)CC[C@H]1C(=O)O[C@H](c3ccoc3)C[C@]21C` [5a, 2-O-Cinnamoylsalvinorin B], which “fold increased KOR affinity compared to 4a” value is on record?
The value was 2 fold.

For `COC(=O)[C@@H]1C[C@H](OC(=O)/C=C/c2ccccc2OC)C(=O)[C@H]2[C@@]1(C)CC[C@H]1C(=O)O[C@H](c3ccoc3)C[C@]21C` [5b, 2-O-(2″-Methoxycinnamoyl)salvinorin B], which “Selectivity DOR/KOR” value is on record?
Its value is >154.

What about the “Selectivity MOR/KOR” value of the same molecule?
The value was >154.

Which “Selectivity DOR/KOR” value does the source give for `COC(=O)[C@@H]1C[C@H](OC(=O)/C=C/c2ccc(OC)cc2)C(=O)[C@H]2[C@@]1(C)CC[C@H]1C(=O)O[C@H](c3ccoc3)C[C@]21C` [5c, 2-O-(4″-Methoxycinnamoyl)salvinorin B] here?
The value was >74.

What about the “Selectivity MOR/KOR” value of the same molecule?
The value was >74.

What does the source list for `COC(=O)[C@@H]1C[C@H](OC(=O)/C=C/c2cc(OC)ccc2OC)C(=O)[C@H]2[C@@]1(C)CC[C@H]1C(=O)O[C@H](c3ccoc3)C[C@]21C` [5d, 2-O-(2″,5″-Dimethoxycinnamoyl)salvinorin B]?
Selectivity DOR/KOR: >17; Selectivity MOR/KOR: >17

Which results are given for `COC(=O)[C@@H]1C[C@H](OC(=O)/C=C/c2ccc(OC)cc2OC)C(=O)[C@H]2[C@@]1(C)CC[C@H]1C(=O)O[C@H](c3ccoc3)C[C@]21C` [5e, 2-O-(2″,4″-Dimethoxycinnamoyl)salvinorin B]?
Selectivity DOR/KOR: >62; Selectivity MOR/KOR: >62

With `COC(=O)[C@@H]1C[C@H](OC(=O)/C=C/c2cc(OC)c(OC)c(OC)c2)C(=O)[C@H]2[C@@]1(C)CC[C@H]1C(=O)O[C@H](c3ccoc3)C[C@]21C` [5f, 2-O-(3″,4″,5″-Trimethoxycinnamoyl)salvinorin B] as the molecule, how does the “affinity for KOR (in words)” value read?
The value was “no appreciable affinity; also recorded: no substantial affinity”.

For `COC(=O)[C@@H]1C[C@H](OC(=O)/C=C/c2ccc3c(c2)OCO3)C(=O)[C@H]2[C@@]1(C)CC[C@H]1C(=O)O[C@H](c3ccoc3)C[C@]21C` [5g, 2-O-(3″,4″-Dioxymethylenecinnamoyl)salvinorin B], which “Selectivity DOR/KOR” value is on record?
The value was >31.

For `COC(=O)[C@@H]1C[C@H](OC(=O)/C=C/c2ccccc2[N+](=O)[O-])C(=O)[C@H]2[C@@]1(C)CC[C@H]1C(=O)O[C@H](c3ccoc3)C[C@]21C` [5h, 2-O-(2″-Nitrocinnamoyl)salvinorin B], which “Selectivity DOR/KOR” value is on record?
Its value is >67.

And the “Selectivity MOR/KOR” value?
Its value is >67.

With `COC(=O)[C@@H]1C[C@H](OC(=O)/C=C/c2ccc([N+](=O)[O-])cc2)C(=O)[C@H]2[C@@]1(C)CC[C@H]1C(=O)O[C@H](c3ccoc3)C[C@]21C` [5i, 2-O-(4″-Nitrocinnamoyl)salvinorin B] as the molecule, how does the “Selectivity DOR/KOR” value read?
The value was >35.

What about the “Selectivity MOR/KOR” value of the same molecule?
Its value is >35.

What does the source list for `COC(=O)[C@@H]1C[C@H](OC(=O)/C=C/c2ccccc2C(F)(F)F)C(=O)[C@H]2[C@@]1(C)CC[C@H]1C(=O)O[C@H](c3ccoc3)C[C@]21C` [5j, 2-O-(2″-Trifluoromethylcinnamoyl)salvinorin B]?
Selectivity DOR/KOR: >77; Selectivity MOR/KOR: >77

What does the source list for `COC(=O)[C@@H]1C[C@H](OC(=O)/C=C/c2cc(C(F)(F)F)ccc2C(F)(F)F)C(=O)[C@H]2[C@@]1(C)CC[C@H]1C(=O)O[C@H](c3ccoc3)C[C@]21C` [5l, 2-O-[2″,5″-bis(Trifluoromethyl)cinnamoyl]salvinorin B]?
Selectivity DOR/KOR: <0.58; affinity for KOR (in words): no substantial affinity

Which “Selectivity DOR/KOR” value does the source give for `COC(=O)[C@@H]1C[C@H](OC(=O)/C=C/c2cccnc2)C(=O)[C@H]2[C@@]1(C)CC[C@H]1C(=O)O[C@H](c3ccoc3)C[C@]21C` [5m, 2-O-[3′-(3″-Pyridyl)acryloyl]salvinorin B] here?
The value was <0.48.

What about the “Selectivity MOR/KOR” value of the same molecule?
Its value is <0.03.

And the “affinity for KOR (in words)” value?
The value was “no substantial affinity”.

Target: δ-opioid receptor (DOR) (Homo sapiens, UniProt P41143)
Sequence (P41143 whole entry): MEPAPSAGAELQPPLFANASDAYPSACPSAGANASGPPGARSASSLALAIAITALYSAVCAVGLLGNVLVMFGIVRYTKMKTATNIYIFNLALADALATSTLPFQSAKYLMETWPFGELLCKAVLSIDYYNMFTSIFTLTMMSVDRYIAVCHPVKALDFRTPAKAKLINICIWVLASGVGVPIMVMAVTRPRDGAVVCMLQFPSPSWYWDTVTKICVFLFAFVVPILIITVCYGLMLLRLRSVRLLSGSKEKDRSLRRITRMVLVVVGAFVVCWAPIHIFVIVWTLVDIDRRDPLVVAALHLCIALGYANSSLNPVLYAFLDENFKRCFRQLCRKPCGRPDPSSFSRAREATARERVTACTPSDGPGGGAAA
Assay: Radioligand binding at DOR against [3H]DADLE
Details: not given

With `COC(=O)[C@@H]1C[C@H](OC(=O)/C=C/c2cc(OC)c(OC)c(OC)c2)C(=O)[C@H]2[C@@]1(C)CC[C@H]1C(=O)O[C@H](c3ccoc3)C[C@]21C` [5f, 2-O-(3″,4″,5″-Trimethoxycinnamoyl)salvinorin B] as the molecule, how does the “affinity for DOR (in words)” value read?
Its value is “no appreciable affinity”.

Target: hKOR receptor (Homo sapiens, UniProt P41145)
Sequence (P41145 whole entry): as the sequence (P41145 whole entry) above
Assay: cell-based
Details: not given

With `C=CC(=O)O[C@H]1C[C@@H](C(=O)OC)[C@]2(C)CC[C@H]3C(=O)O[C@H](c4ccoc4)C[C@]3(C)[C@H]2C1=O` [4a, 2-O-Acryloylsalvinorin B] as the molecule, how does the “fold lower cAMP inhibition level (efficacy) than 1” value read?
The value was 380 ×.

For `COC(=O)[C@@H]1C[C@H](OC(=O)/C=C/c2ccccc2)C(=O)[C@H]2[C@@]1(C)CC[C@H]1C(=O)O[C@H](c3ccoc3)C[C@]21C` [5a, 2-O-Cinnamoylsalvinorin B], which IC50 is on record?
The IC50 was 7 nM.

What about the “fold lower cAMP inhibition level (efficacy) than 1” value of the same molecule?
Its value is 20 ×.

Target: T1, κ-opioid receptor (KOR)
Assay: not given
Details: previously observed; cited from earlier work

For `COC(=O)[C@@H]1C[C@H](OC(=O)CSC#N)C(=O)[C@H]2[C@@]1(C)CC[C@H]1C(=O)O[C@H](c3ccoc3)C[C@]21C` [RB-64, 22-thiocyanatosalvinorin A], which “wash-resistant irreversible binding at KOR” value is on record?
Its value is “wash-resistant irreversible binding”.
